Among the data in patent publication US10703748B2, “Diazanaphthalen-3-yl carboxamides and preparation and use thereof” (Samumed, LLC, priority 2017, dated 2020) are EC50 and inhibition values, retold here.

For experiment [1], the system named is IL-6. In words: IL-6 inhibition in LPS-stimulated human peripheral blood mononuclear cells (HTRF). The note with it: Homo sapiens, PBMC; for EC50: 22 h; for inhibition at 10 µM: read-out: percentage in parentheses after EC50 >10. For orientation: TR-FRET usually uses a lanthanide donor and a delayed reading to cut background.
Experiment [2] has as its system α-smooth muscle actin (aSMA) positive LL29 cells. Nature of the experiment: Inhibition of the fibrotic process: αSMA staining in TGF-β1 treated LL29 fibroblasts from IPF patients. The note with it: Homo sapiens, Fibroblast; for EC50: 96 h; for inhibition at 10 µM: read-out: percentage in parentheses after EC50 >10.
In experiment [3] the target is GSK3β kinase (Homo sapiens, UniProt P49841). Nature of the experiment: GSK3β kinase activity (Ser/Thr 09 peptide Z-lyte FRET assay). It counts as biochemical. The note with it: recombinant kinase, 46 μM ATP, one hour at room temperature; read-out: EC50.
Experiment [4] deals with Tau phosphorylation at Ser396 (pSer396). In words: Tau phosphorylation at Ser396 (pSer396) in SH-SY5Y cells, ELISA / western blot.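 Note: decrease in pSer396 Tau measured in lysates of treated cells by colorimetric ELISA or chemiluminescent western blot, same pSer396 antibody for both.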 It counts as cell-based, human. The note with it: Homo sapiens; SH-SY5Y cells, overnight (16-18 h); read-out: pSer396 Tau EC50. Background: An ELISA detects its analyte on a solid surface through an enzyme-linked reagent.
Description: Two days before treatment, cells were seeded onto 96 well plates at 5×10^4 cells/well.
The above synthesized compounds were screened using the cell assay procedure to assess decrease Tau phosphorylation at Ser396 (pSer396) described below.
Cells were lysed with RIPA buffer complemented with phosphatase and protease inhibitors then lysates were spun down at 12,000 g for 10 min to remove any cellular debris.
Experiment [5] addresses DYRK1A kinase (Homo sapiens, UniProt Q13627). Nature of the experiment: DYRK1A kinase activity (Ser/Thr 18 peptide Z-lyte FRET assay).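 Note: kinase activity read as coumarin/fluorescein emission ratio after development step, with unphosphorylated and phosphorylated peptide forms setting 0% and 100% controls, values from dose-response curves.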 The class given is biochemical. The note with it: recombinant DYRK1A, 30 μM ATP, one hour at room temperature.
Experiment [6] deals with Wnt-responsive Sp5-Luc reporter in SW480 colon carcinoma cells. In words: Screening assay for Wnt activity (Sp5-Luc reporter gene assay). The note with it: Homo sapiens; for EC50: SW480; for inhibition at 10 µM: SW480, read-out: percent inhibition at 10 μM.
Experiment [7] relates to SW480 colon carcinoma cells. In words: Cell viability assay (CellTiter-Glo). The note with it: Homo sapiens; for EC50: SW480, 96 h; for inhibition at 10 µM: SW480, read-out: percent inhibition at 10 μM. On the technique in general: ATP-based viability assays read luminescence as a measure of living cells.
Experiment [8] has as its system secreted cytokines TNFα, IL-6 and KC-GRO. Nature of the experiment: Secreted cytokines in Lipopolysaccharide-stimulated BV-2 cells (Table 9 does not say which cytokine). It counts as cell-based, mouse. The note with it: Mus musculus, BV-2, 5 h; read-out: EC50.
Description: BV-2 cells (mouse microglial cells) were cultured in 1:1 DMEM medium supplemented with 10% FBS, and 1% penicillin/streptomycin.
BV-2 cells are plated at 35,000 cells/well in a volume of 100 μl for at least 4 hours before compounds are added. […] Compounds were added to cells overnight. […] Supernatant is removed and saved for further cytokine detection. The original plates with seeded cells were tested for cytotoxicity by measure of adenosine triphosphate (ATP) release by adding CellTiter-Glo® diluted 1:4 in distilled water (G7573, Promega) and transferring lysed cells to a completely black 96-well plate to be read with the Cytation3. Supernatant was then diluted 1:2 with a diluent from V-PLEX cytokine Kit and directly tested for the secreted cytokines TNFα, IL-6 and KC-GRO using electrochemiluminescence (Meso Scale Discovery). The standard curve for each cytokine was used to convert the electrochemiluminescent signal into pg of protein per mL.

Chain of GSK3β kinase (P49841 whole entry): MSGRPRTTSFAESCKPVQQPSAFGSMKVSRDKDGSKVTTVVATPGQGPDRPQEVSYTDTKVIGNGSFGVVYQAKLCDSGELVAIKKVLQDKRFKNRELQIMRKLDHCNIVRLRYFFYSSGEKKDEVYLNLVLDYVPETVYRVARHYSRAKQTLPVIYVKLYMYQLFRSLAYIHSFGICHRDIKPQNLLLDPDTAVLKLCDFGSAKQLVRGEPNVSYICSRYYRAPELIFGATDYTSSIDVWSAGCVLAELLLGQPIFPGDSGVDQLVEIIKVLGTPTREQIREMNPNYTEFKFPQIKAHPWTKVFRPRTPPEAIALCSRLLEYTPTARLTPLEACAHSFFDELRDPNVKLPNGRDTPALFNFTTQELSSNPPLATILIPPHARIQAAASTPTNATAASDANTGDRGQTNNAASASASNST

What is called EC50 is the concentration giving half of the maximal effect. Regarding `Cn1cncc1-c1ccc2cnc(NC(=O)c3cccc(CN4CCCC4)c3)cc2n1` [Compound 450, N-(2-(1-Methyl-1H-imidazol-5-yl)-1,6-naphthyridin-7-yl)-3-(pyrrolidin-1-ylmethyl)benzamide], the EC50 in experiment [1] was 3510 nM; in experiment [2] it was 517 nM; in experiment [3] it was 350 nM; in experiment [4] it was 3760 nM; in experiment [5] it was 1 nM; in experiment [6] it was 279 nM. In addition, the EC50 in experiment [7] came to 409 nM; in experiment [8] it was 3000 nM.

Consider `CN1CCCN(CC(=O)Nc2cc3cc(-c4cnn(C)c4)ncc3cn2)CC1` [Compound 3733, 2-(4-Methyl-1,4-diazepan-1-yl)-N-(6-(1-methyl-1H-pyrazol-4-yl)-2,7-naphthyridin-3-yl)acetamide], for which the 50% effective concentration (EC50) in experiment [1] was > 10000 nM; in experiment [2], 1830 nM; in experiment [3], 43 nM; in experiment [4], 227 nM; in experiment [5], 16 nM; in experiment [6], 515 nM. In addition, the concentration giving a half-maximal response (EC50) was > 10000 nM in experiment [7] and 3700 nM in experiment [8]. Besides, the inhibition at 10 µM is 6.2% in experiment [1] and 37.3% in experiment [7].

With `O=C(Nc1cc2cc(-c3cnn4c3CN(CCF)CC4)ncc2cn1)C1CCC(F)(F)CC1` [Compound 3944, 4,4-Difluoro-N-(6-(5-(2-fluoroethyl)-4,5,6,7-tetrahydropyrazolo[1,5-a]pyrazin-3-yl)-2,7-naphthyridin-3-yl)cyclohexane-1-carboxamide], the EC50 in experiment [1] was > 10000 nM; in experiment [2] it was 416 nM; in experiment [3], 18 nM; in experiment [4] it was 428 nM; in experiment [5], 6 nM; in experiment [6], 962 nM. Also, the EC50 in experiment [7] stood at 7300 nM; in experiment [8], 471 nM. Besides, in experiment [1], the inhibition at 10 µM worked out at 22.2%.

`CC(C)CN1CCC(C(=O)Nc2cc3cc(-c4cnn(C)c4)cnc3cn2)CC1` [Compound 2736, 1-Isobutyl-N-(3-(1-methyl-1H-pyrazol-4-yl)-1,7-naphthyridin-6-yl) piperidine-4-carboxamide]: the 50% effective concentration (EC50) in experiment [1] is > 10000 nM; in experiment [2], > 10000 nM; in experiment [3], 3730 nM; in experiment [4], > 10000 nM; in experiment [5] it was 30 nM; in experiment [6] it was > 10000 nM. For the same molecule, the 50% effective concentration (EC50) was > 10000 nM in experiment [7] and 109 nM in experiment [8]. The inhibition at 10 µM in experiment [1] came out at 0%; in experiment [2] it was 17%; in experiment [6], 19.3%; in experiment [7], 10.7%.

Turning to `CC(C)CN1CCC(C(=O)Nc2ncc3ccc(-c4cnn(C)c4)cc3n2)CC1` [Compound 923, 1-isobutyl-N-(7-(1-methyl-1H-pyrazol-4-yl)quinazolin-2-yl)piperidine-4-carboxamide], the EC50 in experiment [1] was > 10000 nM; in experiment [2], 2720 nM; in experiment [3] it was 204 nM; in experiment [4] it was 1300 nM; in experiment [5], 44 nM; in experiment [6] it was > 10000 nM. In addition, the EC50 in experiment [7] is > 10000 nM; in experiment [8], 1070 nM. Also, the inhibition at 10 µM in experiment [1] came out at 10.5%; in experiment [6] it was 34.8%; in experiment [7], 33.9%.

Take `CN1CCN(c2ncc(C(=O)Nc3cc4cc(-c5cnn(C)c5)ncc4cn3)s2)CC1` [Compound 4632, N-(6-(1-methyl-1H-pyrazol-4-yl)-2,7-naphthyridin-3-yl)-2-(4-methylpiperazin-1-yl)thiazole-5-carboxamide]: the EC50 in experiment [1] was > 10000 nM; in experiment [2], > 10000 nM; in experiment [3], 321 nM; in experiment [4], 7930 nM; in experiment [5], 5 nM; in experiment [6], 922 nM. For the same molecule, the concentration for a half-maximal effect (EC50) was > 10000 nM in experiment [7] and 700 nM in experiment [8]. The values for the inhibition at 10 µM in experiment [1], in experiment [2] and in experiment [7] were 6.8%, 35.5% and 40.9%, respectively.

For the molecule `Cn1cc(-c2ccc3cnc(NC(=O)[C@H]4CC[C@H](NCCF)CC4)cc3n2)cn1` [Compound 4535, trans-4-((2-Fluoroethyl)amino)-N-(2-(1-methyl-1H-pyrazol-4-yl)-1,6-naphthyridin-7-yl) cyclohexane-1-carboxamide], the concentration giving a half-maximal response (EC50) was 2860 nM in experiment [1]; > 10000 nM in experiment [2]; 188 nM in experiment [3]; 925 nM in experiment [4]; 9 nM in experiment [5]; 346 nM in experiment [6]. The EC50 in experiment [7] came out at 4050 nM; in experiment [8], 162 nM. In experiment [2], the inhibition at 10 µM was found to be 25%.

Regarding `CN(CC(=O)Nc1cc2cc(-c3cnn(C)c3)ncc2cn1)C1CCC1` [Compound 3683, 2-(Cyclobutyl(methyl)amino)-N-(6-(1-methyl-1H-pyrazol-4-yl)-2,7-naphthyridin-3-yl)acetamide], the EC50 in experiment [1] was > 10000 nM; in experiment [2], 597 nM; in experiment [3], 10 nM; in experiment [4], 179 nM; in experiment [5], 8 nM; in experiment [6], 603 nM. The concentration giving a half-maximal response (EC50) in experiment [7] and in experiment [8] was > 10000 nM each time. Further, the inhibition at 10 µM is 4.6% in experiment [1] and 38.8% in experiment [7].

With `O=C(Nc1cc2cc(-c3cnco3)cnc2cn1)C1CCN(C(=O)CN2CCCC2)CC1` [Compound 3249, N-(3-(Oxazol-5-yl)-1,7-naphthyridin-6-yl)-1-(2-(pyrrolidin-1-yl)acetyl)piperidine-4-carboxamide], the EC50 is 8320 nM in experiment [1]; 7060 nM in experiment [2]; 6120 nM in experiment [3]; 10000 nM in experiment [4]; 26 nM in experiment [5]; > 10000 nM in experiment [6]. The half-maximal effective concentration (EC50) was > 10000 nM in experiment [7] and 1200 nM in experiment [8]. Also, the inhibition at 10 µM was determined as 31.5% in experiment [6] and 26.7% in experiment [7].

In the case of `CC(C(=O)Nc1cc2nc(-c3cnn(C)c3)ccc2cn1)N1CCCCC1` (stereo not drawn) [Compound 112, N-(2-(1-Methyl-1H-pyrazol-4-yl)-1,6-naphthyridin-7-yl)-2-(piperidin-1-yl)propanamide], the concentration giving a half-maximal response (EC50) in experiment [1] was 9400 nM; in experiment [2] it was > 10000 nM; in experiment [3] it was 62 nM; in experiment [4] it was 1100 nM; in experiment [5] it was 88 nM; in experiment [6], 3650 nM. Besides, the EC50 came out at 7790 nM in experiment [7] and 5400 nM in experiment [8]. For the same molecule, the inhibition at 10 µM in experiment [2] came out at 13.8%.

In the case of `Cn1cc(-c2cc3cc(NC(=O)C4CCN(S(C)(=O)=O)CC4)ncc3cn2)cn1` [Compound 3699, N-(6-(1-Methyl-1H-pyrazol-4-yl)-2,7-naphthyridin-3-yl)-1-(methylsulfonyl) piperidine-4-carboxamide], the EC50 in experiment [1] is > 10000 nM; in experiment [2], 25 nM; in experiment [3], 6 nM; in experiment [4] it was 43 nM; in experiment [5] it was 2 nM; in experiment [6], 234 nM. In addition, the EC50 in experiment [7] was 6720 nM; in experiment [8], > 10000 nM. For the same molecule, the inhibition at 10 µM in experiment [1] worked out at 8.4%.
